Measured values published in publication PMC4256409, “Role of Phenylalanine and Valine^10 Residues in the Antimicrobial Activity and Cytotoxicity of Piscidin-1” (PLoS ONE, 2014).
Where no end group is shown, it is not given here.

Key:
E. coli KCTC1682 = assay type: cell-based, Escherichia coli; conditions: KCTC1682, 16 h
E. coli KCTC2593 = assay type: cell-based, Escherichia coli; conditions: KCTC2593, 16 h
E.coli KCTC2571 = assay type: cell-based, Escherichia coli; conditions: KCTC2571, 16 h
P. aeruginosa KCTC1637 = assay type: cell-based, Pseudomonas aeruginosa; conditions: KCTC1637, 16 h
P. aeruginosa KCTC2004 = assay type: cell-based, Pseudomonas aeruginosa; conditions: KCTC2004, 16 h
P. aeruginosa KCTC2513 = assay type: cell-based, Pseudomonas aeruginosa; conditions: KCTC2513, 16 h
S. typhimurium KCTC1926 = assay type: cell-based, Salmonella typhimurium; conditions: KCTC1926, 16 h
B. subtilis KCTC3068 = assay type: cell-based, Bacillus subtilis; conditions: KCTC3068, 16 h
B. subtilis KCTC1021 = assay type: cell-based, Bacillus subtilis; conditions: KCTC1021, 16 h
B. subtilis KCTC1022 = assay type: cell-based, Bacillus subtilis; conditions: KCTC1022, 16 h
S. epidermidis KCTC1917 = assay type: cell-based, Staphylococcus epidermidis; conditions: KCTC1917, 16 h
S. aureus KCTC1621 = assay type: cell-based, Staphylococcus aureus; conditions: KCTC1621, 16 h
S. aureus KCTC1916 = assay type: cell-based, Staphylococcus aureus; conditions: KCTC1916, 16 h
S. aureus KCTC3881 = assay type: cell-based, Staphylococcus aureus; conditions: KCTC3881, 16 h
MRSA CCARM3089 = assay type: cell-based, Methicillin-resistant S. aureus; conditions: CCARM3089, 16 h
MRSA CCARM 3090 = assay type: cell-based, Methicillin-resistant S. aureus; conditions: CCARM 3090, 16 h
MRSA CCARM 3108 = assay type: cell-based, Methicillin-resistant S. aureus; conditions: CCARM 3108, 16 h
MRSA CCARM 3114 = assay type: cell-based, Methicillin-resistant S. aureus; conditions: CCARM 3114, 16 h
MRSA CCARM 3126 = assay type: cell-based, Methicillin-resistant S. aureus; conditions: CCARM 3126, 16 h
MDRST CCARM 8003 = assay type: cell-based, multidrug-resistant S. typhimurium; conditions: broth microdilution, 37°C, 16 h, three independent experiments in triplicate, SD 14.0%
MDRST CCARM 8007 = assay type: cell-based, multidrug-resistant S. typhimurium; conditions: broth microdilution, 37°C, 16 h, three independent experiments in triplicate, SD 14.0%
MDRST CCARM 8009 = assay type: cell-based, multidrug-resistant S. typhimurium; conditions: broth microdilution, 37°C, 16 h, three independent experiments in triplicate, SD 14.0%
MDREC CCARM 1229 = assay type: cell-based, multidrug-resistant E. coli; conditions: broth microdilution, 37°C, 16 h, three independent experiments in triplicate, SD 14.0%
MDREC CCARM 1238 = assay type: cell-based, multidrug-resistant E. coli; conditions: broth microdilution, 37°C, 16 h, three independent experiments in triplicate, SD 14.0%
MDRAB CCARM 12005 = assay type: cell-based, multidrug-resistant Acinetobacter baumanii; conditions: broth microdilution, 37°C, 16 h, three independent experiments in triplicate, SD 14.0%
MDRAB CCARM 12035 = assay type: cell-based, multidrug-resistant Acinetobacter baumanii; conditions: broth microdilution, 37°C, 16 h, three independent experiments in triplicate, SD 14.0%
MDRAB CCARM 12036 = assay type: cell-based, multidrug-resistant Acinetobacter baumanii; conditions: broth microdilution, 37°C, 16 h, three independent experiments in triplicate, SD 14.0%
MDRAB CCARM 12037 = assay type: cell-based, multidrug-resistant Acinetobacter baumanii; conditions: broth microdilution, 37°C, 16 h, three independent experiments in triplicate, SD 14.0%
MDRPA CCARM 2002 = assay type: cell-based, multidrug-resistant P. aeruginosa; conditions: broth microdilution, 37°C, 16 h, three independent experiments in triplicate, SD 14.0%
MDRPA CCARM 2003 = assay type: cell-based, multidrug-resistant P. aeruginosa; conditions: broth microdilution, 37°C, 16 h, three independent experiments in triplicate, SD 14.0%
MDRPA CCARM 2095 = assay type: cell-based, multidrug-resistant P. aeruginosa; conditions: broth microdilution, 37°C, 16 h, three independent experiments in triplicate, SD 14.0%
MDRPA CCARM 2163 = assay type: cell-based, multidrug-resistant P. aeruginosa; conditions: broth microdilution, 37°C, 16 h, three independent experiments in triplicate, SD 14.0%
[1] = test system: Standard bacterial strains; assay type: cell-based; conditions: average over the 14 standard bacterial strains of Table 2
[2] = test system: Drug-resistant bacterial strains; conditions: average over the 18 drug-resistant bacterial strains of Table 3
Excerpt: Escherichia coli KCTC 1682, E. coli KCTC 2593, E. coli KCTC 2571, Salmonella typhimurium KCTC 1926, Pseudomonas aeruginosa KCTC 1637, P. aeruginosa KCTC 2004, P. aeruginosa KCTC 2513, Bacillus subtilis KCTC 3068, B. subtilis KCTC 1021, B. subtilis KCTC 1022, Staphylococcus epidermidis KCTC 1917, Staphylococcus aureus KCTC 1621, S. aureus KCTC 1916, and S. aureus KCTC 3881 were purchased from the Korean Collection for Type Cultures, Korea Research Institute of Bioscience & Biotechnology (Taejon, Korea). Methicillin-resistant S. aureus (MRSA) (CCARM 3089, CCARM 3090, CCARM 3108, CCARM 3114, and CCARM 3126), multidrug-resistant E. coli (MDREC) (CCARM 1229 and CCARM 1238), multidrug-resistant S. typhimurium (MDRST) (CCARM 8003, CCARM 8007, and CCARM 8009), multidrug-resistant Acinetobacter baumanii (MDRAB) (CCARM 12005, CCARM 12035, CCARM 12036, CCARM 12037), and multidrug-resistant P. aeruginosa (MDRPA) (CCARM 2002, CCARM 2003, CCARM 2095, and CCARM 2163) were obtained from the Culture Collection of Antibiotic-Resistant Microbes (CCARM) at Seoul Women’s University in Korea. The antimicrobial activities of the peptides against selected organisms, including three Gram-positive, three Gram-negative, and five antibiotic-resistant bacteria, were determined using a broth microdilution assay. Briefly, single colonies of bacteria and fungi were inoculated into Luria-Bertani (LB) medium and cultured overnight at 37°C. An aliquot of the culture was transferred to 10 mL of fresh LB and incubated for an additional 3–5 h at 37°C until it reached the mid-logarithmic phase. Two-fold serial dilutions of the peptides in 1% peptone were prepared. The serial dilutions (100 µL) were added to 100 µL of cells (2×10^6 colony-forming units (CFU)/mL) in 96-well microtiter plates and incubated at 37°C for 16 h. […] MIC values were calculated as the average of triplicate measurements from three independent assays.

| Sequence | MIC (E. coli KCTC1682) | MIC (E. coli KCTC2593) | MIC (E.coli KCTC2571) | MIC (P. aeruginosa KCTC1637) | MIC (P. aeruginosa KCTC2004) | MIC (P. aeruginosa KCTC2513) | MIC (S. typhimurium KCTC1926) | MIC (B. subtilis KCTC3068) | MIC (B. subtilis KCTC1021) | MIC (B. subtilis KCTC1022) | MIC (S. epidermidis KCTC1917) | MIC (S. aureus KCTC1621) | MIC (S. aureus KCTC1916) | MIC (S. aureus KCTC3881) | MIC (MRSA CCARM3089) | MIC (MRSA CCARM 3090) | MIC (MRSA CCARM 3108) | MIC (MRSA CCARM 3114) | MIC (MRSA CCARM 3126) | MIC (MDRST CCARM 8003) | other results |
| --- | --- | --- | --- | --- | --- | --- | --- | --- | --- | --- | --- | --- | --- | --- | --- | --- | --- | --- | --- | --- | --- |
| FFHHIKRGIVHVGKTIHRLVTG [Pis-F6K] | 4.0 µM | 2.0 µM | 4.0 µM | 8.0 µM | 8.0 µM | 8.0 µM | 8.0 µM | 4.0 µM | 4.0 µM | 1.0 µM | 2.0 µM | 4.0 µM | 4.0 µM | 4.0 µM | 16 µM | 16 µM | 16 µM | 16 µM | 16 µM | 16 µM | MIC (MDRST CCARM 8007): 16 µM; MIC (MDRST CCARM 8009): 16 µM; MIC (MDREC CCARM 1229): 16 µM; MIC (MDREC CCARM 1238): 16 µM; MIC (MDRAB CCARM 12005): 4.0 µM; MIC (MDRAB CCARM 12035): 4.0 µM; MIC (MDRAB CCARM 12036): 4.0 µM; MIC (MDRAB CCARM 12037): 4.0 µM; MIC (MDRPA CCARM 2002): 4.0 µM; MIC (MDRPA CCARM 2003): 4.0 µM; MIC (MDRPA CCARM 2095): 4.0 µM; MIC (MDRPA CCARM 2163): 4.0 µM; Average MIC [1]: 4.6 µM; Average MIC [2]: 11 µM |
| FKHHIFRGIKHVGKTIHRLVTG [Pis-F2K/V10K] | 1.0 µM | 4.0 µM | 4.0 µM | 1.0 µM | 8.0 µM | 8.0 µM | 2.0 µM | 2.0 µM | 8.0 µM | 4.0 µM | 4.0 µM | 2.0 µM | 4.0 µM | 4.0 µM | 8.0 µM | 8.0 µM | 8.0 µM | 8.0 µM | 8.0 µM | 16 µM | MIC (MDRST CCARM 8007): 8.0 µM; MIC (MDRST CCARM 8009): 8.0 µM; MIC (MDREC CCARM 1229): 8.0 µM; MIC (MDREC CCARM 1238): 8.0 µM; MIC (MDRAB CCARM 12005): 2.0 µM; MIC (MDRAB CCARM 12035): 2.0 µM; MIC (MDRAB CCARM 12036): 2.0 µM; MIC (MDRAB CCARM 12037): 2.0 µM; MIC (MDRPA CCARM 2002): 2.0 µM; MIC (MDRPA CCARM 2003): 2.0 µM; MIC (MDRPA CCARM 2095): 2.0 µM; MIC (MDRPA CCARM 2163): 2.0 µM; Average MIC [1]: 4.0 µM; Average MIC [2]: 5.8 µM |
| FKHHIFRGIVHVGKTIHRLVTG [Pis-F2K] | 4.0 µM | 2.0 µM | 2.0 µM | 4.0 µM | 8.0 µM | 8.0 µM | 8.0 µM | 4.0 µM | 4.0 µM | 1.0 µM | 2.0 µM | 4.0 µM | 2.0 µM | 2.0 µM | 16 µM | 16 µM | 16 µM | 16 µM | 16 µM | 16 µM | MIC (MDRST CCARM 8007): 16 µM; MIC (MDRST CCARM 8009): 16 µM; MIC (MDREC CCARM 1229): 16 µM; MIC (MDREC CCARM 1238): 16 µM; MIC (MDRAB CCARM 12005): 2.0 µM; MIC (MDRAB CCARM 12035): 2.0 µM; MIC (MDRAB CCARM 12036): 2.0 µM; MIC (MDRAB CCARM 12037): 2.0 µM; MIC (MDRPA CCARM 2002): 2.0 µM; MIC (MDRPA CCARM 2003): 2.0 µM; MIC (MDRPA CCARM 2095): 2.0 µM; MIC (MDRPA CCARM 2163): 2.0 µM; Average MIC [1]: 3.9 µM; Average MIC [2]: 9.8 µM |
| KFHHIFRGIKHVGKTIHRLVTG [Pis-F1K/V10K] | 1.0 µM | 2.0 µM | 2.0 µM | 1.0 µM | 2.0 µM | 2.0 µM | 1.0 µM | 1.0 µM | 4.0 µM | 2.0 µM | 1.0 µM | 2.0 µM | 2.0 µM | 2.0 µM | 4.0 µM | 4.0 µM | 4.0 µM | 8.0 µM | 4.0 µM | 8.0 µM | MIC (MDRST CCARM 8007): 8.0 µM; MIC (MDRST CCARM 8009): 8.0 µM; MIC (MDREC CCARM 1229): 4.0 µM; MIC (MDREC CCARM 1238): 4.0 µM; MIC (MDRAB CCARM 12005): 2.0 µM; MIC (MDRAB CCARM 12035): 2.0 µM; MIC (MDRAB CCARM 12036): 2.0 µM; MIC (MDRAB CCARM 12037): 2.0 µM; MIC (MDRPA CCARM 2002): 2.0 µM; MIC (MDRPA CCARM 2003): 2.0 µM; MIC (MDRPA CCARM 2095): 2.0 µM; MIC (MDRPA CCARM 2163): 2.0 µM; Average MIC [1]: 1.8 µM; Average MIC [2]: 4.0 µM |
| KFHHIFRGIVHVGKTIHRLVTG [Pis-F1K] | 4.0 µM | 2.0 µM | 2.0 µM | 4.0 µM | 4.0 µM | 4.0 µM | 4.0 µM | 2.0 µM | 2.0 µM | 1.0 µM | 2.0 µM | 2.0 µM | 2.0 µM | 2.0 µM | 8.0 µM | 8.0 µM | 8.0 µM | 8.0 µM | 8.0 µM | 4.0 µM | MIC (MDRST CCARM 8007): 4.0 µM; MIC (MDRST CCARM 8009): 4.0 µM; MIC (MDREC CCARM 1229): 8.0 µM; MIC (MDREC CCARM 1238): 8.0 µM; MIC (MDRAB CCARM 12005): 2.0 µM; MIC (MDRAB CCARM 12035): 2.0 µM; MIC (MDRAB CCARM 12036): 2.0 µM; MIC (MDRAB CCARM 12037): 2.0 µM; MIC (MDRPA CCARM 2002): 2.0 µM; MIC (MDRPA CCARM 2003): 2.0 µM; MIC (MDRPA CCARM 2095): 2.0 µM; MIC (MDRPA CCARM 2163): 2.0 µM; Average MIC [1]: 2.6 µM; Average MIC [2]: 4.7 µM |
